Test results published in the supplement of paper PMC10307832.

Experiments:
Experiment in all cases: relative viability (nuclei count vs DMSO), 5 days (fraction); higher = more cells survive
Trametinib + Crizotinib = compound: CC(=O)Nc1cccc(-n2c(=O)n(C3CC3)c(=O)c3c(Nc4ccc(I)cc4F)n(C)c(=O)c(C)c32)c1 [Trametinib] + C[C@@H](Oc1cc(-c2cnn(C3CCNCC3)c2)cnc1N)c1c(Cl)ccc(F)c1Cl [Crizotinib] (partner 1 µM)
Outline: (§1)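 Each reported value is a median over duplicate plates. It expresses relative viability: treated-well nuclei count divided by vehicle-well nuclei count. Lung cancer cell lines in 1536-well plates were dosed by pin tool a day after seeding, alone with one drug or with a fixed anchor-drug dose plus five library-drug doses (not always all listed) in √10 steps, and nuclei were counted after 5 days.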

Trametinib + Alpelisib = compound: CC(=O)Nc1cccc(-n2c(=O)n(C3CC3)c(=O)c3c(Nc4ccc(I)cc4F)n(C)c(=O)c(C)c32)c1 [Trametinib] + Cc1nc(NC(=O)N2CCC[C@H]2C(N)=O)sc1-c1ccnc(C(C)(C)C(F)(F)F)c1 [Alpelisib] (partner 2 µM)
Outline: as §1

[1] = compound: CN1C=C(C2=CC=CC=C21)/C=C\3/C4=C(C=CC=N4)NC3=O + CC(=O)c1c(C)c2cnc(Nc3ccc(N4CCNCC4)cn3)nc2n(C2CCCC2)c1=O [Palbociclib] (partner 0.5 µM)
Outline: as §1

Trametinib + Dasatinib = compound: CC(=O)Nc1cccc(-n2c(=O)n(C3CC3)c(=O)c3c(Nc4ccc(I)cc4F)n(C)c(=O)c(C)c32)c1 [Trametinib] + Cc1nc(Nc2ncc(C(=O)Nc3c(C)cccc3Cl)s2)cc(N2CCN(CCO)CC2)n1 [Dasatinib] (partner 0.075 µM)
Outline: as §1

| Cell Line | relative viability (Trametinib + Crizotinib; first compound 0.0025 µM) | relative viability (Trametinib + Crizotinib; first compound 0.007906 µM) | relative viability (Trametinib + Crizotinib; first compound 0.025 µM) | relative viability (Trametinib + Crizotinib; first compound 0.07906 µM) | relative viability (Trametinib + Crizotinib; first compound 0.25 µM) | relative viability (Trametinib + Alpelisib; first compound 0.0025 µM) | relative viability (Trametinib + Alpelisib; first compound 0.007906 µM) | relative viability (Trametinib + Alpelisib; first compound 0.025 µM) | relative viability (Trametinib + Alpelisib; first compound 0.07906 µM) | relative viability (Trametinib + Alpelisib; first compound 0.25 µM) | relative viability ([1]; first compound 0.02 µM) | relative viability ([1]; first compound 0.06325 µM) | relative viability ([1]; first compound 0.2 µM) | relative viability ([1]; first compound 0.6325 µM) | relative viability ([1]; first compound 2 µM) | relative viability (Trametinib + Dasatinib; first compound 0.0025 µM) | relative viability (Trametinib + Dasatinib; first compound 0.007906 µM) | relative viability (Trametinib + Dasatinib; first compound 0.025 µM) | relative viability (Trametinib + Dasatinib; first compound 0.07906 µM) | relative viability (Trametinib + Dasatinib; first compound 0.25 µM) |
| --- | --- | --- | --- | --- | --- | --- | --- | --- | --- | --- | --- | --- | --- | --- | --- | --- | --- | --- | --- | --- |
| HCC-78 | 0.318 | 0.275 | 0.252 | 0.285 | 0.215 | 0.304 | 0.242 | 0.226 | 0.205 | 0.224 | 0.356 | 0.426 | 0.364 | 0.48 | 0.437 | 0.359 | 0.265 | 0.23 | 0.294 | 0.25 |
| HCC-366 | 0.446 | 0.425 | 0.34 | 0.246 | 0.0629 | 0.214 | 0.241 | 0.182 | 0.143 | 0.0782 | 0.239 | 0.281 | 0.338 | 0.397 | 0.304 | 0.47 | 0.416 | 0.32 | 0.227 | 0.196 |
| HCC-827 | 0.931 | 0.946 | 0.889 | 0.859 | 0.532 | 1.01 | 0.753 | 0.699 | 0.591 | 0.399 | 0.444 | 0.462 | – | 0.475 | 0.5 | 0.301 | 0.243 | 0.246 | 0.144 | 0.157 |
| HOP-62 | 0.925 | 0.932 | 0.581 | 0.502 | 0.209 | 0.813 | 0.984 | 0.525 | 0.377 | 0.166 | 0.438 | 0.415 | – | 0.449 | 0.483 | 0.681 | 0.43 | 0.249 | 0.206 | 0.212 |
| IA-LM | 0.771 | 0.407 | 0.16 | 0.141 | 0.112 | 0.656 | 0.393 | 0.129 | 0.104 | 0.109 | – | – | – | – | – | – | – | – | – | – |
| LC-2-ad | 0.47 | 0.463 | 0.422 | – | 0.294 | 0.864 | 0.452 | 0.662 | 0.408 | 0.233 | 0.527 | 0.468 | 0.506 | 0.462 | 0.47 | 0.484 | 0.485 | 0.502 | 0.313 | 0.301 |
| LCLC-97TM1 | 0.482 | 0.573 | 0.271 | 0.281 | 0.147 | 0.216 | 0.199 | 0.146 | 0.183 | 0.11 | – | 0.156 | 0.201 | 0.203 | 0.261 | 0.816 | 0.44 | 0.381 | 0.125 | 0.171 |
| LCLC-103H | 0.938 | 1.07 | 0.799 | 0.756 | 0.76 | 0.974 | 0.875 | 0.665 | 0.81 | 0.624 | 0.493 | 0.411 | 0.479 | 0.471 | 0.472 | 0.498 | 0.512 | 0.429 | 0.402 | 0.446 |
| LK-2 | 0.283 | 0.217 | 0.226 | 0.299 | 0.241 | 1 | 0.862 | 0.958 | 1.28 | 0.303 | 0.232 | 0.421 | 0.447 | 0.576 | 0.678 | 0.251 | 0.272 | 0.239 | 0.212 | 0.156 |
| LOU-NH91 | 0.722 | 0.667 | 0.714 | 0.636 | 0.501 | 0.674 | 0.601 | 0.619 | 0.545 | 0.4 | 0.427 | 0.524 | 0.512 | 0.506 | 0.51 | 0.528 | 0.498 | 0.468 | 0.426 | 0.296 |
| NCI-H522 | – | – | – | – | – | – | – | – | – | – | 1.04 | 1.01 | 1.08 | 0.874 | 1.06 | 0.892 | 0.913 | 0.665 | 0.724 | 0.671 |
| NCI-H596 | 0.8 | 0.824 | 0.757 | 0.721 | 0.597 | 0.34 | 0.422 | 0.311 | 0.371 | 0.342 | – | – | – | – | – | 0.533 | 0.535 | 0.495 | 0.487 | 0.303 |
| NCI-H1299 | 0.951 | 0.926 | 0.869 | 0.848 | 0.521 | 1.04 | 1.08 | 0.911 | 0.799 | 0.744 | – | – | – | – | – | – | – | – | – | – |
| NCI-H1395 | – | – | – | – | – | 1.02 | 0.903 | 1.39 | 1.09 | 0.652 | 0.567 | 0.534 | 0.581 | 0.618 | 0.581 | 0.44 | 0.662 | 0.454 | 0.378 | 0.345 |
| NCI-H1563 | 0.944 | 0.747 | 0.817 | 0.785 | 0.623 | 0.94 | 0.985 | 0.992 | 0.968 | 0.628 | – | – | – | – | – | 0.466 | 0.509 | 0.467 | 0.438 | 0.464 |
| NCI-H1623 | – | – | – | – | – | – | – | – | – | – | – | – | – | – | – | 0.487 | 0.449 | 0.306 | 0.378 | 0.618 |
| NCI-H1648 | – | – | – | – | – | – | – | – | – | – | 0.308 | 0.305 | 0.233 | 0.285 | 0.28 | – | – | – | – | – |
| NCI-H1650 | 1.04 | 0.779 | 0.795 | 0.69 | 0.302 | – | – | – | – | – | 0.299 | 0.274 | 0.267 | 0.299 | 0.353 | 0.337 | 0.368 | 0.344 | 0.298 | 0.16 |
| NCI-H1703 | – | 0.495 | 0.66 | 0.727 | 0.423 | 0.367 | 0.373 | 0.28 | 0.306 | 0.29 | – | – | – | – | – | – | – | – | – | – |
| NCI-H1793 | – | – | – | – | – | 0.578 | 0.457 | 0.28 | 0.425 | 0.29 | 0.322 | 0.39 | 0.285 | 0.275 | 0.296 | 0.26 | 0.25 | 0.244 | 0.212 | 0.242 |
| NCI-H2342 | – | – | – | – | – | – | – | – | – | – | 0.552 | 0.557 | 0.519 | 0.537 | 0.485 | 0.298 | 0.28 | – | 0.3 | 0.303 |
| SW 900 | – | – | – | – | – | – | – | – | – | – | 0.428 | – | – | 0.542 | 0.563 | 0.559 | 0.652 | 0.46 | 0.57 | 0.238 |
